# Like-named read-outs stand apart in the source and are kept apart here.
# What was measured:
# [1] = tested on: Bacillus licheniformis 217 strain; assay: Example 3: sporulation of bacilli in broke, metals, DTPA and test product C; format: cell-based
# Description: (§1) In this laboratory experiment, the effect of bivalent manganese and bivalent iron as well as a chelating agent (DTPA, diethylenetriaminepentaacetic acid) on the sporulation of bacilli isolated from a board machine was studied under conditions of the broke system. For the experiment, an inoculum free of spores was prepared from the Bacillus licheniformis 217 strain by carrying out three consecutive cultivations in a liquid medium for 24 hours (Tryptone-Yeast Extract Medium, +50° C., agitation at 100 rpm) using a low inoculation ratio (0.1% by volume/volume). Broke free of spores was produced by sterilizing dilute broke of the board machine. A low amount of spray starch used in the board machine was added to the broke to make up for the amount of starch consumed by bacterial activity during the transportation of the broke sample to the laboratory. The broke was divided into aliquots of 25 ml each and filled in tubes, followed by the addition of the test agents at different concentrations. 0.2% stock solutions of manganese (Mn(II)Cl2×4H2O) and iron (Fe(II)SO4×7H2O) in deionized water were sterile filtered using 0.2 μm spray filters. 25 μl of the Bacillus culture free of spores were added to each tube, followed by keeping the tubes at 45° C. (agitation at 100 rpm). The amounts of aerobic bacteria and aerobic spores in each tube were determined after different exposure times. The amount of aerobic bacteria were determined by a filtering method, whereas aerobic spores were determined from pasteurized (20 min, 80° C.) samples using the pour plate method (Plate Count Agar in both cases, 45° C., 3 d).
# In this laboratory experiment, the effect of a test product C containing a dispersing agent and DTPA on sporulation of bacilli isolated from a board machine was studied under the conditions in the broke system. […]
# [2] = tested on: Bacillus licheniformis 217 strain; assay: Example 1: sporulation of bacilli isolated from a board machine in sterilized dilute broke with spray starch; format: cell-based
# Description: as §1, with “0.2% stock solutions of manganese (Mn(II)Cl2×4H2O) and iron (Fe(II)SO4×7H2O) in deionized water were sterile filtered using 0.2 μm spray filters. 25 μl of the Bacillus culture free of spores were added to each tube, followed by keeping the tubes at 45° C. (agitation at 100 rpm).” left out
# [3] = pulping process; cited from earlier work
# [4] = tested on: Bacillus subtilis bacteria; conditions: cited from earlier work
# [5] = molecular target: aconitase enzyme (Bacillus subtilis, UniProt P09339); conditions: concentrations of less than 1 mM; cited from earlier work
# [6] = tested on: Bacillus subtilis bacteria; conditions: cited from earlier work; remark: listed apart in the source
# aconitase enzyme, sequence (P09339 whole entry): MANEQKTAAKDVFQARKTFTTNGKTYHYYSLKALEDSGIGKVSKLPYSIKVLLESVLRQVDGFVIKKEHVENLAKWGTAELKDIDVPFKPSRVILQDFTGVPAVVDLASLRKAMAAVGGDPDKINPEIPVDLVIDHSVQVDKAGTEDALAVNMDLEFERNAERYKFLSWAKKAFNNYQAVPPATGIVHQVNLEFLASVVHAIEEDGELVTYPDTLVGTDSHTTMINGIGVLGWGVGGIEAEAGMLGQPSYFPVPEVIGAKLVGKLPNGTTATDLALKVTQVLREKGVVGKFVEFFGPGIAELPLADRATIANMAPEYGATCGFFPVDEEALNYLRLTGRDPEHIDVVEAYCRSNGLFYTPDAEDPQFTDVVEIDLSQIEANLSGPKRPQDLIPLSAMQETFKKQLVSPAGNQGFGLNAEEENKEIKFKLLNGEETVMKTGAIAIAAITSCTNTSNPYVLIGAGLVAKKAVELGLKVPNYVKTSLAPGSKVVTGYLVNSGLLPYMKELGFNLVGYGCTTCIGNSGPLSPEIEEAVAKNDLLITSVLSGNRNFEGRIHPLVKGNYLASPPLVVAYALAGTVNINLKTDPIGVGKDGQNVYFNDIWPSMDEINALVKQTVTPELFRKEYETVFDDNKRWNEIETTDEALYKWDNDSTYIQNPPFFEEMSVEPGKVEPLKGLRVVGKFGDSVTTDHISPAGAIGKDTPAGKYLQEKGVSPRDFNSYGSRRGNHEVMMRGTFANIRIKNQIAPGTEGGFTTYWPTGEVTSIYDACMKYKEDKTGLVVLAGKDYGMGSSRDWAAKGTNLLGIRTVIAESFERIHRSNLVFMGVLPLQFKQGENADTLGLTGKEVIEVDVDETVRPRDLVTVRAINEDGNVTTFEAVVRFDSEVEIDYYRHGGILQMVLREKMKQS
smiles,measurement,setting,value
"O=C(O)CN(CCN(CC(=O)O)CC(=O)O)CCN(CC(=O)O)CC(=O)O [DTPA, diethylenetriaminepentaacetic acid]","toxicity to bacilli (amount of aerobic bacteria, FIG. 5)",[1],neither DTPA nor the test product C was toxic
same,reduction of sporulation,[1]; 12 ppm (as active agent),99.4%
same,sporulation frequency,[1]; 12 ppm (as active agent),0.11%
same,reduction of sporulation,[2]; 12.5 ppm (as active agent),79%
same,inhibition of sporulation,[2]; 17.5 ppm,total inhibition
"O=P(O)(O)CN(CCN(CP(=O)(O)O)CP(=O)(O)O)CCN(CP(=O)(O)O)CP(=O)(O)O [DTPMP, diethylenetriamine-pentakis methylenephosphonic acid]",chelating performance for manganese,[3],over 95%
O=C(O)c1ccccn1 [alpha picolinic acid],sporulation,[4]; concentration of 0.4 mM,reduced sporulation
same,growth,[4]; concentrations of less than 1 mM (<123 ppm),not inhibited
c1ccc(-c2ccccn2)nc1 [dipyridyl],aconitase enzyme inhibition,[5],inhibited
[Mn+2] [manganese],amount of sporulating cells of the wild type strain,[6]; 0.006 ppm manganese addition,about 2.6%
same,amount of sporulating cells of the wild type strain,[6]; 0.8 ppm of manganese added,39%
same,amount of sporulating cells,"[6]; manganese addition of 0.1 ppm or more, growth medium rich in nutrients",increased
c1cnc2c(c1)ccc1cccnc12 [o-phenanthroline],aconitase enzyme inhibition,[5],inhibited
O=C(O)c1ccc2ccccc2n1 [quinaldic acid],aconitase enzyme inhibition,[5],inhibited
